From paper PMC2771219 (Journal of molecular biology, 2009)

Target: UDP-galactopyranose mutase (UGM) (Klebsiella pneumoniae, UniProt Q48485, R384G)
Assay: fluorescence polarization
Format: binding

UDP-fluorescein
Kd: 0.09 µM
